“And” between values parts separate entries of the source, which are not always exact repeats. Equal entries are not always repeated.
Key:
[1] = target: 140 purified human kinases (Rattus norvegicus, UniProt Q62868); assay: Kinase inhibition screen, cell-free 33P ATP assay at 10 μM; assay type: biochemical
Summary of the method: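 Each complex tested in duplicate at 10 μM; cell-free radiometric assay using ^33P ATP on purified enzymes. Hits mapped by HGNC symbol onto the kinome tree.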

[2] = target: T1, recombinant human AMPK (α1β2γ1) (Homo sapiens, UniProt Q13131); assay: ATP competition kinase assay; assay type: biochemical
T1 construct: purchased Promega
T1 sequence (Q13131 whole entry): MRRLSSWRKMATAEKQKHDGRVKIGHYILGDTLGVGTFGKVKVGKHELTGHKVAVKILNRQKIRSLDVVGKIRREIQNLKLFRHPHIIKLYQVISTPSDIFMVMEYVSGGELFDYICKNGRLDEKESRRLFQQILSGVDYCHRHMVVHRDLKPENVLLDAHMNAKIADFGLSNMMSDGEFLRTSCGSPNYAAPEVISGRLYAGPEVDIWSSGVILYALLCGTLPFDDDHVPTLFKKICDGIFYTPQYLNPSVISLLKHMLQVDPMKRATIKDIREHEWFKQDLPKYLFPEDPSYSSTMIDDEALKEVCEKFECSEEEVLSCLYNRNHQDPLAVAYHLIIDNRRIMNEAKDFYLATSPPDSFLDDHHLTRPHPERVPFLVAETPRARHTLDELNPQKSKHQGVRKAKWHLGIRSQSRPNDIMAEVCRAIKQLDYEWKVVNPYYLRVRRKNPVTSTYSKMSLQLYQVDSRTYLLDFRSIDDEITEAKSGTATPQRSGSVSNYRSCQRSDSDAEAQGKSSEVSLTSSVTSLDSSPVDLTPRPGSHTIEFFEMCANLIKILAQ
T1 sequence (O43741 whole entry partner): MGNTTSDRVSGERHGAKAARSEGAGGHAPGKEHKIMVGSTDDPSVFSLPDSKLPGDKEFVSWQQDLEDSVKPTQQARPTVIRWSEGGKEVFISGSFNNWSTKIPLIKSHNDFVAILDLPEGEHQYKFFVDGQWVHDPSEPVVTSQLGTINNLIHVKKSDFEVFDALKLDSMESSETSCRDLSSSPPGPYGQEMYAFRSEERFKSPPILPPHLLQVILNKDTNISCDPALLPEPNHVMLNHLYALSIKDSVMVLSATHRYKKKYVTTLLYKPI
T1 sequence (P54619 whole entry partner): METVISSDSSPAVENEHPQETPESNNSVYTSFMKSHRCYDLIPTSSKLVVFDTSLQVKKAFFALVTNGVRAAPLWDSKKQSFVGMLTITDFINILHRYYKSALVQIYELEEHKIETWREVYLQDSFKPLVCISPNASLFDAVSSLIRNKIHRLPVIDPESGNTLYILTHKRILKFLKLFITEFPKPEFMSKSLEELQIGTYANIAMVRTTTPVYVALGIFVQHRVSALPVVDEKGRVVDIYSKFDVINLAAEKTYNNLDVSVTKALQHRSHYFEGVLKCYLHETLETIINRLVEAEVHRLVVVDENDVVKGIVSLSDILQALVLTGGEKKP
Procedure: (§1) ATP competition kinase assays were performed by the MRC Protein Phosphorylation and Ubiquitination Unit International Centre for Kinase Profiling (University of Dundee). Inhibition of recombinant human AMPK (α1β2γ1) by 10μM [L2Cu3]^6+ or [L2Zn3]^6+ was evaluated at five different ATP concentrations (0.5, 2, 20, 200 and 500 µM ATP). Substrate competition assays were performed using the ADP-Glo Kinase Assay (Promega) and recombinant human AMPK (α1β2γ1) (Promega) with concentrations of the provided AMPK substrate (SAMStide substrate, Promega) ranging from 1 to 15 mg/ml. Following pre-incubation of substrate with kinase for 5 min 10 µM [L2Cu3]^6+, [L2Zn3]^6+ or solvent control and 50 µM ATP was added to start the kinase reaction. For determination of the effects of AMP on AMPK inhibition by [L2Zn3]^6+, the ADP-Glo Kinase Assay (Promega) was performed in presence of varying of AMP (0, 80, 160 μM).

[3] = target: T1, recombinant human AMPK (α1β2γ1); assay: Substrate competition assay (ADP-Glo Kinase Assay); assay type: biochemical
Procedure: as §1

[4] = target: recombinant human AMPK (pT172 AMPKα1, pS108 AMPKβ1) (Homo sapiens, UniProt Q13131); assay: In vitro phosphatase assay with recombinant kinase, immunoblotting; assay type: biochemical; conditions: 50 μM complex, 4 h, with ATP
recombinant human AMPK (pT172 AMPKα1, pS108 AMPKβ1), sequence (Q13131 whole entry, canonical isoform): as the sequence (Q13131 whole entry) above
recombinant human AMPK (pT172 AMPKα1, pS108 AMPKβ1), sequence (O43741 whole entry partner, canonical isoform): as the sequence (O43741 whole entry partner) above
recombinant human AMPK (pT172 AMPKα1, pS108 AMPKβ1), sequence (P54619 whole entry partner, canonical isoform): as the sequence (P54619 whole entry partner) above
Procedure: 800 ng of purified recombinant human AMPK (α1β2γ1) or Src kinase (MRC PPU, International Centre for Kinase Profiling, University of Dundee) was incubated with 50 μM [L2Cu3]^6+, [L2Zn3]^6+, or vehicle control in 50 mM Tris HCl pH 7.5 containing 50 μM ATP for 4 h at 37 °C. For [L2Zn3]^6+ time course and concentration titration experiments, 800 ng recombinant human AMPK was used (α1β2γ1 AMPK isoform for pT172 AMPKα1 detection or α2β1γ1 AMPK isoform for pS108 AMPKβ1 detection). For evaluation of ATP dependency and influence of AMP, 50 µM ATP was replaced with 50 µM AMP or omitted. Reactions were stopped by addition of Laemmli’s buffer (Biorad) to 1x and heating at 95 °C for 5 min before analysis by SDS PAGE and immunoblotting for detection of specific phosphorylated amino acids of AMPK and Src proteins.
(§2) Protein lysates and recombinant proteins were resolved on 15% SDS polyacrylamide gels. Proteins were electroblotted onto nitrocellulose membrane by wet transfer in 1xTris Glycine buffer (Biorad) at 35 mA overnight at room temperature. After blocking of membranes, these were incubated with primary antibody overnight at 4 °C before addition of rabbit or mouse secondary antibody (HRP-conjugated; 1:5000, Dako P0448 or P0260) for 1 h at room temperature and development of blots by enhanced chemiluminescence. Primary antibodies were: anti-Src (total) (Cell Signalling Technology #2123 1:1000), anti-phosphorylated Src (Y527) (Cell Signalling Technology #21055 1:1000), anti-phosphorylated Src (Y416) (Cell Signalling Technology #69435 1:1000), anti-AMPKα (total) (Cell Signalling Technology #2532 1:1000), anti-phosphorylated AMPKα (T172) (Cell Signalling Technology #2535 1:1000), anti-AMPKβ1 (total) (Cell Signalling Technology #4150 1:1000), anti-phosphorylated AMPKβ1 (S108) (abcam ab156890 1:500), anti-phospho-Tyr (pan) (Cell Signalling Technology #8954 1:2000), anti-p53 (Santa Cruz, DO-1 clone, 1:1000,), anti-phosphorylated LDH-A (Y10) (Cell Signalling Technology #8176 1:1000), anti-LDH-A/B (total) (abcam ab134187 1:5000), anti-β-actin (Merck MAB1501, 1:40,000). Quantification of signals was performed by densitometry using Image J software. Uncropped and unprocessed scans are provided in the Source Data file.

ARPE-19 = assay: Immunoblotting of whole cell protein lysates; assay type: cell-based, human; conditions: for levels of p53: ARPE19, 5 µM, 40 h
Procedure: (§3) ARPE-19 and HCT116 p53^+/+ cells were seeded at a density of 3 × 10^5 (ARPE-19) or 5 × 10^5 (HCT116 p53^+/+) in T25 flasks. 24 h after seeding, cells were treated with 10 µM of [L2Cu3]^6+, [L2Zn3]^6+, or vehicle control for 4 h (Fig. 8b) or 5 μM of [L2Cu3]^6+, [L2Zn3]^6+, or vehicle control for 40 h (Fig. 10). Cells were then harvested and lysed in RIPA buffer (Sigma) with the protein concentration of lysates determined by the BCA assay.
as §2

HCT116 p53+/+ = assay: Immunoblotting of whole cell protein lysates; assay type: cell-based, human
Procedure: as §3, §2

140 purified human kinases, sequence (Q62868 whole entry): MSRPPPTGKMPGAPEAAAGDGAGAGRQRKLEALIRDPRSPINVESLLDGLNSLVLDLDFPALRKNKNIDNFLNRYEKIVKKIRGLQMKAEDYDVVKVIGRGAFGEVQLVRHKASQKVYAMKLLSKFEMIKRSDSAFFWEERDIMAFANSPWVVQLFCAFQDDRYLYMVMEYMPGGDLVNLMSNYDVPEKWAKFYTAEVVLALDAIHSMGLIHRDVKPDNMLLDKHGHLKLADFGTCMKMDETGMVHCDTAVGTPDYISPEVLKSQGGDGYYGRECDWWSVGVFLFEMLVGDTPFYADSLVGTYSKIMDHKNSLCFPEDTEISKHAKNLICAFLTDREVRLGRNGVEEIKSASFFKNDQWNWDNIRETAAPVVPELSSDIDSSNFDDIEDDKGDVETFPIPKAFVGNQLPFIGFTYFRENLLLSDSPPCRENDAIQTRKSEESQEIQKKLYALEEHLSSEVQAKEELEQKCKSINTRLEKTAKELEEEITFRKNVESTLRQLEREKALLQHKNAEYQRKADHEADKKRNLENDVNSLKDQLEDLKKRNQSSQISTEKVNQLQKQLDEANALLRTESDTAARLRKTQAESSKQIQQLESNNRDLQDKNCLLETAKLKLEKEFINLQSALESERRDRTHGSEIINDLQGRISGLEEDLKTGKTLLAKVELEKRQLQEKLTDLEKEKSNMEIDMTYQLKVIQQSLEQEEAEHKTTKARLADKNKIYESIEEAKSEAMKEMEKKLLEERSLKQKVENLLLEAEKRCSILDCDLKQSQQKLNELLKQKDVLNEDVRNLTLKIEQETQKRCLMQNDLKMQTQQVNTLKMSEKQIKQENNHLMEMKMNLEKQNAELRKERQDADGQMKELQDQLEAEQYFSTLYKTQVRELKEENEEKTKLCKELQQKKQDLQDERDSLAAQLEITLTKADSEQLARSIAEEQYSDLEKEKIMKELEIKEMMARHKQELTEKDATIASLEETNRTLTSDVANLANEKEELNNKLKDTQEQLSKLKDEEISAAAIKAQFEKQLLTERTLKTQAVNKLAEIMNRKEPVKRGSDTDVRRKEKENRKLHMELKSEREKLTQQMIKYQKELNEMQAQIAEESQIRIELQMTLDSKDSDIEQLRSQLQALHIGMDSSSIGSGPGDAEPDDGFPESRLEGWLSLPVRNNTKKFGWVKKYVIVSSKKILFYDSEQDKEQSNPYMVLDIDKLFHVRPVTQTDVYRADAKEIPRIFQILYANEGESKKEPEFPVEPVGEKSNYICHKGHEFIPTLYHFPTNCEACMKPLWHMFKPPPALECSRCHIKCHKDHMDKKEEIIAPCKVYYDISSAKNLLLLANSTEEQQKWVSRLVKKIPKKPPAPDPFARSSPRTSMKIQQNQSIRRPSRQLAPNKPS

Row | SMILES | % Activity remaining compared to 100% DMSO controls, individual replicates ([2]; ATP conc 0.5 µM) | Mean Activity (%) remaining compared to 100% DMSO controls ([2]; ATP conc 0.5 µM) | % Activity remaining compared to 100% DMSO controls, individual replicates ([2]; ATP conc 2 µM) | Mean Activity (%) remaining compared to 100% DMSO controls ([2]; ATP conc 2 µM) | % Activity remaining compared to 100% DMSO controls, individual replicates ([2]; ATP conc 20 µM) | Mean Activity (%) remaining compared to 100% DMSO controls ([2]; ATP conc 20 µM) | % Activity remaining compared to 100% DMSO controls, individual replicates ([2]; ATP conc 200 µM) | Mean Activity (%) remaining compared to 100% DMSO controls ([2]; ATP conc 200 µM) | % Activity remaining compared to 100% DMSO controls, individual replicates ([2]; ATP conc 500 µM) | Mean Activity (%) remaining compared to 100% DMSO controls ([2]; ATP conc 500 µM) | %AMPK Activity Remaining, Mean ([3]; Substrate 1 mg/ml) | %AMPK Activity Remaining, individual replicates ([3]; Substrate 1 mg/ml) | %AMPK Activity Remaining, Mean ([3]; Substrate 2.5 mg/ml) | %AMPK Activity Remaining, individual replicates ([3]; Substrate 2.5 mg/ml) | %AMPK Activity Remaining, Mean ([3]; Substrate 5 mg/ml) | %AMPK Activity Remaining, individual replicates ([3]; Substrate 5 mg/ml) | %AMPK Activity Remaining, Mean ([3]; Substrate 10 mg/ml) | %AMPK Activity Remaining, individual replicates ([3]; Substrate 10 mg/ml) | %AMPK Activity Remaining, Mean ([3]; Substrate 15 mg/ml) | %AMPK Activity Remaining, individual replicates ([3]; Substrate 15 mg/ml) | other results
1 | [Cu+2].[Cu+2].[Cu+2].c1ccc(-c2csc(NCCN(CCNc3nc(-c4ccccn4)cs3)CCNc3nc(-c4ccccn4)cs3)n2)nc1.c1ccc(-c2csc(NCCN(CCNc3nc(-c4ccccn4)cs3)CCNc3nc(-c4ccccn4)cs3)n2)nc1 [[L2Cu3]6+] | 12.56% and 14.65% and 16.05% | 14.42% | 15.11% and 18.68% and 17.31% | 17.03% | 12.85% and 11.15% and 12.56% | 12.19% | 10.11% and 10.01% and 10.69% | 10.27% | 20.03% and 18.99% and 20.22% | 19.74% | 34.60% | 16.20% and 28.30% and 59.40% | 20.90% | 15.60% and 15.00% and 32.00% | 17.00% | 18.00% and 15.40% and 17.70% | 25.40% | 26.20% and 21.60% and 28.40% | 17.20% | 13.60% and 12.90% and 25.20% | % activity ([1]; ROCK 2, Run 1): 16.5%; % activity ([1]; ROCK 2, Run 2): 22.5%; T172P levels of AMPKα detectable by immunoblotting [4]: significantly reduced; levels of p53 (ARPE-19): decreased; increase of p53 levels (HCT116 p53+/+; HCT116, 5 µM, 40 h): ~ 1.7 fold
2 | CC(=O)[O-].CC(=O)[O-].CC(=O)[O-].CC(=O)[O-].CC(=O)[O-].CC(=O)[O-].[Zn+2].[Zn+2].[Zn+2].c1ccc(-c2csc(NCCN(CCNc3nc(-c4ccccn4)cs3)CCNc3nc(-c4ccccn4)cs3)n2)nc1.c1ccc(-c2csc(NCCN(CCNc3nc(-c4ccccn4)cs3)CCNc3nc(-c4ccccn4)cs3)n2)nc1 [[L2Zn3]6+] | 17.76% and 11.76% and 14.76% | 14.76% | 15.06% and 12.57% and 9.46% | 12.36% | 16.58% and 14.33% and 12.68% | 14.53% | 16.91% and 18.22% and 15.98% | 17.04% | 15.73% and 11.81% and 15.83% | 14.46% | 42.90% | 57.40% and 31.37% and 37.80% and 44.50% | 28.10% | 30.60% and 40.90% and 18.40% and 22.50% | 39.40% | 31.50% (2×) and 56.70% (2×) and 25.70% (2×) and 43.60% (2×) | 43.70% | 40.20% and 42.80% and 35.20% and 56.50% | 35.80% | 33.30% and 26.60% and 47.50% | T172P levels of AMPKα detectable by immunoblotting [4]: significantly reduced; levels of p53 (ARPE-19): decreased; p-Y10 LDH-A (ARPE-19; ARPE-19, 10µM, 4h, n=1): modestly decrease; cellular levels of T172P of AMPKα relative to total AMPKα (HCT116 p53+/+; HCT116, 5 µM, 40 h): increased; increase of p53 levels (HCT116 p53+/+; HCT116, 5 µM, 40 h): ~ 2.7 fold; decrease in total levels of Tyr-phosphorylated proteins (HCT116 p53+/+; HCT116, 5 µM, 40 h, pan phospho-tyrosine antibody): ~ 10%; cellular phospho-Thr172 AMPKα levels (HCT116 p53+/+; HCT116 cancer cells, 10 µM, 4 h): decreased

— article PMC8222254, “Self-assembly of an anion receptor with metal-dependent kinase inhibition and potent in vitro anti-cancer properties” (Nature Communications, 2021)
